ChEMBL document CHEMBL4840352 (J Med Chem, 2021)
pIC50: −log10 of the molar value. Activity calls are given as the source filed them. The calls are words filed in the database; no cut-off is given here.

How the values were obtained:
[1] = molecular target: CDK7/Cyclin H/MNAT1 (Homo sapiens) (UniProt P51946+P50613+P51948); experiment: Inhibition of CDK7/cyclinH/MAT1 (unknown origin) at 1000 nM relative to control; type: protein-complex assay
MOLM-13 [2] = experiment: Reduction in intracellular ROS level in human MOLM-13 cells measured after 12 hrs by DCFH-DA probe based flow cytometry; type: functional, cell-based; settings: dose 25-200 nM
[3] = molecular target: Receptor-type tyrosine-protein kinase FLT3 (Homo sapiens) (UniProt P36888); experiment: Inhibition of FLT3 in human MOLM-13 cells assessed as reduction in STAT5 phosphorylation at 15 nM by Western blot analysis; type: cell-based; settings: time 0-12 hrs, TDE = time-dependent effect
Sequence of Receptor-type tyrosine-protein kinase FLT3 (Homo sapiens) (P36888 whole entry, the tested form may be a part): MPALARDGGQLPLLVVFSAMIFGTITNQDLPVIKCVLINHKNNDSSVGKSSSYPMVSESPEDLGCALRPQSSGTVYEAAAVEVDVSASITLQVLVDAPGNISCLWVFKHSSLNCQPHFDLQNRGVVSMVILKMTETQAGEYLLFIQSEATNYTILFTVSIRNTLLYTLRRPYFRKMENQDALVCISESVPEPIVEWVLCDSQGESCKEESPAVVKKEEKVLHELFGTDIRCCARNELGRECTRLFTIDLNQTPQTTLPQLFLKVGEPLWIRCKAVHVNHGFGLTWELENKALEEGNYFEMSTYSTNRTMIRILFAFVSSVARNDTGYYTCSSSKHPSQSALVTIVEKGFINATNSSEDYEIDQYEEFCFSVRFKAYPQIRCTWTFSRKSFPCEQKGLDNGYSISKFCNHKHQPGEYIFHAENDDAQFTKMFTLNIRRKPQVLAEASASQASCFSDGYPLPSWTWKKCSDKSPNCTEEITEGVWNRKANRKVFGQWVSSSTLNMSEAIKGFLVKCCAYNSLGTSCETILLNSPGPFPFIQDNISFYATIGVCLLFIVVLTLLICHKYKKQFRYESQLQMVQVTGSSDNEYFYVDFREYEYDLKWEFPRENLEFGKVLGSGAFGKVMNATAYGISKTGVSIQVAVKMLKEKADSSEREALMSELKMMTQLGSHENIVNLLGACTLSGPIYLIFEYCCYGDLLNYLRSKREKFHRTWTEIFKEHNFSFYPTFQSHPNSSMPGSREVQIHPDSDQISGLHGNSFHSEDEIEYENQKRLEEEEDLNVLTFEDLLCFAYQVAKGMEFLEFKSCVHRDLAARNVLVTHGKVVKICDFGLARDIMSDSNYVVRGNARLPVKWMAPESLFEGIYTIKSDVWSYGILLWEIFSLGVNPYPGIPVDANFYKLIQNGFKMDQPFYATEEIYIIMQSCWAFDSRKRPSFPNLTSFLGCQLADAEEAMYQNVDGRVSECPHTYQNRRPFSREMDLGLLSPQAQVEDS

[4] = molecular target: Mast/stem cell growth factor receptor Kit (Homo sapiens) (UniProt P10721); experiment: Inhibition of KIT (unknown origin) at 1000 nM relative to control
Sequence of Mast/stem cell growth factor receptor Kit (Homo sapiens) (P10721 whole entry): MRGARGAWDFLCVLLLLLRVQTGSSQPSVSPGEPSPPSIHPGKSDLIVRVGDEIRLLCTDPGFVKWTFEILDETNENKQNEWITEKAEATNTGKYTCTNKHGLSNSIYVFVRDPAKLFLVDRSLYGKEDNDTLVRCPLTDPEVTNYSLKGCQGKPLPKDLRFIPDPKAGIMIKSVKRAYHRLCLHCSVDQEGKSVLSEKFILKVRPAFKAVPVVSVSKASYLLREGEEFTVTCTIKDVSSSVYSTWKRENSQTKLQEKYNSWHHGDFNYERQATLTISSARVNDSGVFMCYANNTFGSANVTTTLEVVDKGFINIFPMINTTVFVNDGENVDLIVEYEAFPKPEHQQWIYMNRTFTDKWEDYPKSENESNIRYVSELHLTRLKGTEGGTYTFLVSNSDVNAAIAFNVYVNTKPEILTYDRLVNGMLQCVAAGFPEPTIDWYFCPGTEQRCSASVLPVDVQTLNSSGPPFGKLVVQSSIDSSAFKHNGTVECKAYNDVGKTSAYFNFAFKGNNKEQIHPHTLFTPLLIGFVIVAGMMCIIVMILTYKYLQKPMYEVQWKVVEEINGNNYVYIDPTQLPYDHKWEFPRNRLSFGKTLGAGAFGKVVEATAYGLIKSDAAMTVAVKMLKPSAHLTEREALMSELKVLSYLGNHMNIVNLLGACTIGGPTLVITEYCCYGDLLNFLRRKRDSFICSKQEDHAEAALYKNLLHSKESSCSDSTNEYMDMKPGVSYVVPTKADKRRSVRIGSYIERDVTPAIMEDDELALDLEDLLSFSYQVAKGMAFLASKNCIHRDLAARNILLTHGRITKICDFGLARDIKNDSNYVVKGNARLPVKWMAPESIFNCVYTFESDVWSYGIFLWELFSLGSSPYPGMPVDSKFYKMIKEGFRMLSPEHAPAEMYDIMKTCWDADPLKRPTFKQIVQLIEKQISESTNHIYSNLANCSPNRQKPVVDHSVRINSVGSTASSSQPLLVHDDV

MV4-11 [5] = experiment: Induction of apoptosis in human MV4-11 cells after 48 hrs by Annexin-V/PI staining based flow cytometry; type: functional, cell-based; settings: dose 1.25-10 nM
[6] = molecular target: Fibroblast growth factor receptor 1 (Homo sapiens) (UniProt P11362); settings: dose 1000.0 nM
Description: Inhibition of FGFR1 (unknown origin) at 1000 nM relative to control

[7] = molecular target: Tyrosine-protein kinase Lck (Homo sapiens) (UniProt P06239); settings: dose 1000.0 nM
Sequence of Tyrosine-protein kinase Lck (Homo sapiens) (P06239 2-509 limits assumed): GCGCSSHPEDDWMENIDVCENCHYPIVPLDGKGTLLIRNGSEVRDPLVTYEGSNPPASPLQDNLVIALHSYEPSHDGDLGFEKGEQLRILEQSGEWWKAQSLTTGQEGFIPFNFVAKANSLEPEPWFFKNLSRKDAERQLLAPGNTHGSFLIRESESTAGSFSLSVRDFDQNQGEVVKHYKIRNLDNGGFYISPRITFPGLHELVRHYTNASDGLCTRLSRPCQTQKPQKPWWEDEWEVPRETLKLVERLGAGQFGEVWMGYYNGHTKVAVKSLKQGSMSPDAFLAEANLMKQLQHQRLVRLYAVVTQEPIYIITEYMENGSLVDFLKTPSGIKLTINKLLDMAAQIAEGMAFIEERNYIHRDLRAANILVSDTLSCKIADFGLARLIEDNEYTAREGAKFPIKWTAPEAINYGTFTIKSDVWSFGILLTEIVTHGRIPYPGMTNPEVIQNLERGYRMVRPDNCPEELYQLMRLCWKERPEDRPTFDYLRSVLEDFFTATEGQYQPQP
Description: Inhibition of LCK (unknown origin) at 1000 nM relative to control

[8] = molecular target: Platelet-derived growth factor receptor beta (Homo sapiens) (UniProt P09619); experiment: Induction of PDGFR degradation in human MV4-11 cells at 0 to 25 nM after 24 hrs by Western blot analysis; type: cell-based; settings: dose 0-25 nM
Sequence of Platelet-derived growth factor receptor beta (Homo sapiens) (P09619 whole entry): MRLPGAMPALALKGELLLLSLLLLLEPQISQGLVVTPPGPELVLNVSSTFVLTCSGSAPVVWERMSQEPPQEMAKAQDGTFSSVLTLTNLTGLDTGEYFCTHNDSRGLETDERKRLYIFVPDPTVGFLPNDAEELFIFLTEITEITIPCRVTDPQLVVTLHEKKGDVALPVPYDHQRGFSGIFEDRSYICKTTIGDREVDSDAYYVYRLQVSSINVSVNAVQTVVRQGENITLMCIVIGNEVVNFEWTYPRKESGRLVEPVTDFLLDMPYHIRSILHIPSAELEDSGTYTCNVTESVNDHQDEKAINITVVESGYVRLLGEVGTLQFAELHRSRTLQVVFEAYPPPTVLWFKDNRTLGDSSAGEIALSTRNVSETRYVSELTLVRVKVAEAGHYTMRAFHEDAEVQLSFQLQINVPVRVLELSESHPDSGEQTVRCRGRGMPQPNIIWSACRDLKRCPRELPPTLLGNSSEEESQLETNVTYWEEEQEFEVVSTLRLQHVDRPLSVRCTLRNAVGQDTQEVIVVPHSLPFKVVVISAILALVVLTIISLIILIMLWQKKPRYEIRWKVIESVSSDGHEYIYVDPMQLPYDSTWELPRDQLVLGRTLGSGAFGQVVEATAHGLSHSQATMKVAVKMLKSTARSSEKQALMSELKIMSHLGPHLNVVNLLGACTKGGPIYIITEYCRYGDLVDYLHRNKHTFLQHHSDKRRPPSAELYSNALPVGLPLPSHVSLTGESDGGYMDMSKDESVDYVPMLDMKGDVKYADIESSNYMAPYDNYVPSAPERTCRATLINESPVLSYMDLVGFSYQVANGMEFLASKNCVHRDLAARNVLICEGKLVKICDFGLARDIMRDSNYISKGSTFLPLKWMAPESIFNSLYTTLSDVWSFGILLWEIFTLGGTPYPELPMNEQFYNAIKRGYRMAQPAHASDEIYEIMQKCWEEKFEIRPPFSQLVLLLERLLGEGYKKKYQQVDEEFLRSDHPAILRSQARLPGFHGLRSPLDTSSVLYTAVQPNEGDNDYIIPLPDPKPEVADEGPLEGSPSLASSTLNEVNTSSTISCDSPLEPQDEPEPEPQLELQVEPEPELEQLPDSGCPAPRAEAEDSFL

[9] = molecular target: Mast/stem cell growth factor receptor Kit (Homo sapiens) (UniProt P10721); experiment: Induction of KIT degradation in human MV4-11 cells at 0 to 25 nM after 24 hrs by Western blot analysis; type: cell-based; settings: dose 0-25 nM
[10] = molecular target: Serine/threonine-protein kinase 4 (Homo sapiens) (UniProt Q13043); experiment: Inhibition of MST1 (unknown origin) at 1000 nM relative to control
[11] = molecular target: Mast/stem cell growth factor receptor Kit (Homo sapiens) (UniProt P10721); experiment: Inhibition of KIT in human MOLM-13 cells assessed as reduction in PI3K phosphorylation at 5 to 25 nM after 24 hrs by Western blot analysis; type: cell-based; settings: dose 5-25 nM
[12] = Toxicity in NOD/SCID mouse xenografted with human MV4-11 cells assessed as effect on body weight at 3 mg/kg/day, iv administered for 12 hrs; type: organism-based; settings: in vivo
[13] = molecular target: Platelet-derived growth factor receptor beta (Homo sapiens) (UniProt P09619); experiment: Induction of PDGFR degradation in human MOLM-13 cells at 0 to 25 nM after 24 hrs by Western blot analysis; type: cell-based; settings: dose 0-25 nM
[14] = tested on: Receptor-type tyrosine-protein kinase FLT3 (Homo sapiens), P36888 [UNDEFINED MUTATION]; experiment: Induction of FLT3-ITD degradation in human MV4-11 cells at 20 nM pretreated with pomalidomide for 2 hrs followed compound addition for 6 hrs by Western blot analysis; type: cell-based
Sequence of Receptor-type tyrosine-protein kinase FLT3 (Homo sapiens), P36888 [UNDEFINED MUTATION] (P36888 whole entry, looked up, change not shown): as the sequence (P36888 whole entry, the tested form may be a part) above

[15] = tested on: Receptor-type tyrosine-protein kinase FLT3 (Homo sapiens), P36888 [UNDEFINED MUTATION]; experiment: Induction of FLT3-ITD degradation in human MOLM-13 cells after 24 hrs by Western blot analysis; type: cell-based
[16] = molecular target: Receptor tyrosine-protein kinase erbB-2 (Homo sapiens) (UniProt P04626); experiment: Inhibition of HER2 (unknown origin) at 1000 nM relative to control
MOLM-13 [17] = experiment: Induction of apoptosis in human MOLM-13 cells assessed as downregulation of Mcl-1 level at 15 nM measured upto 12 hrs by Western blot analysis; type: functional, cell-based; settings: time hrs <=12
[18] = molecular target: Serine/threonine-protein kinase TBK1 (Homo sapiens) (UniProt Q9UHD2); experiment: Inhibition of TBK1 (unknown origin) at 1000 nM relative to control
MV4-11 [19] = experiment: Induction of apoptosis in human MV4-11 cells assessed as downregulation of Bcl-2 level at 15 nM measured upto 12 hrs by Western blot analysis; type: functional, cell-based; settings: time hrs <=12
MV4-11 [20] = experiment: Induction of apoptosis in human MV4-11 cells assessed as downregulation of Mcl-1 level at 15 nM measured upto 12 hrs by Western blot analysis; type: functional, cell-based; settings: time hrs <=12
[21] = molecular target: Vascular endothelial growth factor receptor 2 (Homo sapiens) (UniProt P35968); settings: dose 1000.0 nM
Description: Inhibition of KDR (unknown origin) at 1000 nM relative to control

[22] = molecular target: Mitogen-activated protein kinase 3 (Homo sapiens) (UniProt P27361); experiment: Inhibition of ERK1 (unknown origin) at 1000 nM relative to control
[23] = molecular target: Mitogen-activated protein kinase 14 (Homo sapiens) (UniProt Q16539); settings: dose 1000.0 nM
Description: Inhibition of p38alpha (unknown origin) at 1000 nM relative to control

[24] = molecular target: Tyrosine-protein kinase ABL1 (Homo sapiens) (UniProt P00519); settings: dose 1000.0 nM
Description: Inhibition of ABL (unknown origin) at 1000 nM relative to control

[25] = molecular target: Receptor-type tyrosine-protein kinase FLT3 (Homo sapiens) (UniProt P36888); experiment: Inhibition of FLT3 in human MV4-11 cells assessed as reduction in ERK phosphorylation at 15 nM by Western blot analysis; type: cell-based; settings: time 0-12 hrs, TDE = time-dependent effect
[26] = tested on: Receptor-type tyrosine-protein kinase FLT3 (Homo sapiens), P36888 [UNDEFINED MUTATION]; experiment: Induction of FLT3-ITD degradation in human MV4-11 cells at 20 nM pretreated with MG132 for 2 hrs followed compound addition for 6 hrs by Western blot analysis; type: cell-based
[27] = molecular target: Hepatocyte growth factor receptor (Homo sapiens) (UniProt P08581); experiment: Inhibition of C-MET (unknown origin) at 1000 nM relative to control
MV4-11 [28] = experiment: Antitumor activity against human MV4-11 cells xenografted in NOD/SCID mouse assessed as reduction in CD45-positive cells in bone marrow at 3 mg/kg/day, iv administered for 12 days by flow cytometry analysis (reference value: 32.23 %); type: functional; set-up: scale not given: the % may be the effect or the level left; settings: time 12 day
[29] = molecular target: Receptor-type tyrosine-protein kinase FLT3 (Homo sapiens) (UniProt P36888); experiment: Inhibition of FLT3 in human MOLM-13 cells assessed as reduction in AKT phosphorylation at 15 nM by Western blot analysis; type: cell-based; settings: time 0-12 hrs, TDE = time-dependent effect
[30] = molecular target: Mitogen-activated protein kinase 8 (Homo sapiens) (UniProt P45983); experiment: Inhibition of JNK1 (unknown origin) at 1000 nM relative to control
[31] = molecular target: Receptor-type tyrosine-protein kinase FLT3 (Homo sapiens) (UniProt P36888); settings: dose 1000.0 nM
Description: Inhibition of FLT3 (unknown origin) at 1000 nM relative to control

[32] = molecular target: Discoidin domain-containing receptor 2 (Homo sapiens) (UniProt Q16832); experiment: Inhibition of DDR2 (unknown origin) at 1000 nM relative to control
[33] = molecular target: Mitogen-activated protein kinase kinase kinase kinase 1 (Homo sapiens) (UniProt Q92918); experiment: Inhibition of HPK1 (unknown origin) at 1000 nM relative to control
Sequence of Mitogen-activated protein kinase kinase kinase kinase 1 (Homo sapiens) (Q92918 whole entry, looked up): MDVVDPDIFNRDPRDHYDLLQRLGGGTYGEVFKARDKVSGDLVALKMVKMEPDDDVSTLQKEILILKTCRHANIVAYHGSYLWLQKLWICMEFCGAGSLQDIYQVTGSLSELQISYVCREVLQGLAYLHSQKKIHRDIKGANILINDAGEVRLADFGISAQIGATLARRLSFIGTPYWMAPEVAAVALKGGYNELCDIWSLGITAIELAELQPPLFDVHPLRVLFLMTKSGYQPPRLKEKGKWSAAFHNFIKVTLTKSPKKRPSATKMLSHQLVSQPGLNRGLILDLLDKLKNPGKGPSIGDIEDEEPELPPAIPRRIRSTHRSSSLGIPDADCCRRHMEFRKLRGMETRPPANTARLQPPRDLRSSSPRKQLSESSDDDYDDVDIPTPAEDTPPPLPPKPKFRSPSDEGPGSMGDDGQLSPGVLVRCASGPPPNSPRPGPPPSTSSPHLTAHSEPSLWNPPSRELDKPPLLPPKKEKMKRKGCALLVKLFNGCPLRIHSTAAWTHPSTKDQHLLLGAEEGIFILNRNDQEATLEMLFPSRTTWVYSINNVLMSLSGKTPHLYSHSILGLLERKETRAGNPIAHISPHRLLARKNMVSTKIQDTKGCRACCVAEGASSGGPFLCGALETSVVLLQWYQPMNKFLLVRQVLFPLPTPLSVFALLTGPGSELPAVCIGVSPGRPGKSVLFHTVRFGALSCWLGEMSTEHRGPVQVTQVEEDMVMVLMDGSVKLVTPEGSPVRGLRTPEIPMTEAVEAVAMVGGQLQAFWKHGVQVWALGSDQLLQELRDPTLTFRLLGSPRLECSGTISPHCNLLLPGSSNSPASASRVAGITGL

[34] = molecular target: Serine/threonine-protein kinase Chk1 (Homo sapiens) (UniProt O14757); experiment: Inhibition of CHK1 (unknown origin) at 1000 nM relative to control
Sequence of Serine/threonine-protein kinase Chk1 (Homo sapiens) (O14757 whole entry): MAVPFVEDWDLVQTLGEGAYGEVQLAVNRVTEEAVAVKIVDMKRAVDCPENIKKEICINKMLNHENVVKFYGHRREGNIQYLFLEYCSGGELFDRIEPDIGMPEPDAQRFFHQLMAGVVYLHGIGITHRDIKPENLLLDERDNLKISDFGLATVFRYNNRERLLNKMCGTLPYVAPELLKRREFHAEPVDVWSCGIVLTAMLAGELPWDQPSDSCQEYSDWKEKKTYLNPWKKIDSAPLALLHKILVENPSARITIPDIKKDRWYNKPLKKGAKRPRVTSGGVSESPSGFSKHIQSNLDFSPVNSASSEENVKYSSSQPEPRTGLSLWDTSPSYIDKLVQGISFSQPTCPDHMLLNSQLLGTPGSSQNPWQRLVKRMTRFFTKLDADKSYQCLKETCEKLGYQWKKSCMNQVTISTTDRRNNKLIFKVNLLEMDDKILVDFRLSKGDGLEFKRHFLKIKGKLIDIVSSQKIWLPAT

[35] = molecular target: Platelet-derived growth factor receptor alpha (Homo sapiens) (UniProt P16234); settings: dose 1000.0 nM
Description: Inhibition of PDGFRalpha (unknown origin) at 1000 nM relative to control

MV4-11 [36] = experiment: Antiproliferative activity against human MV4-11 cells incubated for 48 hrs by CCK-8 assay; type: functional, cell-based; settings: MV4-11, 48 h
MOLM-13 [37] = experiment: Induction of apoptosis in human MOLM-13 cells assessed as downregulation of Bcl-2 level at 15 nM measured upto 12 hrs by Western blot analysis; type: functional, cell-based; settings: time hrs <=12
[38] = molecular target: Serine/threonine-protein kinase Chk2 (Homo sapiens) (UniProt O96017); experiment: Inhibition of CHK2 (unknown origin) at 1000 nM relative to control
MV4-11 [39] = experiment: Reduction in intracellular ROS level in human MV4-11 cells measured after 12 hrs by DCFH-DA probe based flow cytometry; type: functional, cell-based; settings: dose 25-200 nM

inhibition [1]: 0%
inhibition [3]: Tde
inhibition [4]: 83%
inhibition [6]: 17%
inhibition [7]: 16%
Activity [8]: Active
Activity [9]: Active
inhibition [10]: 32%
inhibition [11]: Active
Activity [13]: Active
Activity [14]: inactive
Activity [15]: Dose-Dependent Effect
inhibition [16]: 50%
inhibition [18]: 22%
inhibition [21]: 69%
inhibition [22]: 4%
inhibition [23]: 12%
inhibition [24]: 7%
inhibition [25]: Tde
Activity [26]: inactive
inhibition [27]: 15%
inhibition [29]: Tde
inhibition [30]: -8%
inhibition [31]: 93%
inhibition [32]: 17%
inhibition [33]: 49%
inhibition [34]: 26%
inhibition [35]: 82%
pIC50 (MV4-11 [36]): 8.04
inhibition [38]: 0%
SMILES: Nc1c(-c2nc3cc(N4CCN(C(=O)CCCCCNc5cccc6c5C(=O)N(C5CCC(=O)NC5=O)C6=O)CC4)ccc3[nH]2)c(=O)[nH]c2cccc(F)c12 (centres undefined)
Activity (MOLM-13 [2]): Dose-Dependent Effect
Activity (MV4-11 [5]): Dose-Dependent Effect
Activity [12]: Non-Toxic
Activity (MOLM-13 [17]): Active
Activity (MV4-11 [19]): Active
Activity (MV4-11 [20]): Active
Activity (MV4-11 [28]): 5.19%
Activity (MOLM-13 [37]): Active
Activity (MV4-11 [39]): Dose-Dependent Effect
